From patent US20140005417A1, “WATER-INSOLUBLE COLORING COMPOUND, INK, RESIST COMPOSITION FOR COLOR FILTER, AND THERMAL TRANSFER RECORDING SHEET” (CANON KABUSHIKI KAISHA, priority 2011, published 2014)

Experiments:
physchem = conditions: organic solvent or mixture, thermodynamic from solid
Description: The solubility in each solvent was visually evaluated by the following criteria:
A: completely dissolved (the solubility is excellent),
B: slightly remaining suspended solids (the solubility is good), and
C: not dissolved at all (the solubility is poor).

[1] = Light resistance evaluation of ink image samples (exposure test); conditions: ink image sample with L* closest to 60; Weather-Ometer exposure 36 hours, black panel 50° C., chamber 40° C., RH 70%, 340 nm 0.39 W/m^2; less than 10 = good
Description: The measurement conditions were as follows:
Relative Humidity: 70%, and
Before and after the exposure test, chromaticity (L*, a*, and b*) in the L*a*b* color system of the sample was measured with a reflection densitometer SpectroLino (manufactured by Gretag Macbeth AG). The color difference (ΔE) was calculated from the measured values of color properties by the following expression:
Color difference (ΔE)=[{(a* before the test)−(a* after the test)}^2+{(b* before the test)−(b* after the test)}^2+{(L* before the test)−(L* after the test)}^2]^1/2
When the ΔE after 36 hours was less than 10, the light resistance was evaluated as good.

Solubility in water = format: physicochemical
Description: The water-insoluble coloring compound represented by Formula (1) of the present invention has a high affinity to an organic solvent. In the present invention, the term “water-insoluble” refers to that the solubility in water is less than 1% as mass percentage.

CCN(CC)c1ccc2c(c1)Oc1cc(N(CC)CC)ccc1C21OC(=O)c2ccccc21 [(1)]
solubility (physchem; chloroform): > 42.9 mg/mL | solubility (physchem; ethyl acetate): < 42.9 mg/mL | solubility (physchem; methanol): > 42.9 mg/mL | solubility (physchem; toluene): < 42.9 mg/mL | ΔE (36 h) [1]: 15.8

Nc1c(Oc2ccccc2)cc(O)c2c1C(=O)c1ccccc1C2=O [(2)]
solubility (physchem; chloroform): < 42.9 mg/mL | solubility (physchem; ethyl acetate): < 42.9 mg/mL | solubility (physchem; methanol): < 42.9 mg/mL | solubility (physchem; toluene): < 42.9 mg/mL | ΔE (36 h) [1]: 12.3

Cc1ccc(/N=N/c2c(O)c(C(=O)O)cc3ccccc23)c(S(=O)(=O)O)c1 [(3)]
solubility (physchem; chloroform): < 42.9 mg/mL | solubility (physchem; ethyl acetate): < 42.9 mg/mL | solubility (physchem; methanol): < 42.9 mg/mL | solubility (physchem; toluene): < 42.9 mg/mL | ΔE (36 h) [1]: 1.5

CC(=O)Nc1c(C)c(N=c2ccc3c(-c4ccccc4S(=O)(=O)O)c4ccc(Nc5c(C)c(NC(C)=O)c(C)c(NC(C)=O)c5C)cc4oc-3c2)c(C)c(NC(C)=O)c1C [(11)]
ΔE (36 h) [1]: 2.3

CCOC(=O)c1ccccc1C(=O)Nc1c(C)cc(C)c(N=c2ccc3c(-c4ccccc4S(=O)(=O)O)c4ccc(Nc5c(C)cc(C)c(NC(=O)c6ccccc6C(=O)OCC)c5C)cc4oc-3c2)c1C [(12)]
ΔE (36 h) [1]: 3.5

CC(=O)Nc1c(C)cc(C)c(N=c2ccc3c(-c4ccccc4S(=O)(=O)O)c4ccc(Nc5c(C)c(NC(C)=O)c(C)c(NC(C)=O)c5C)cc4oc-3c2)c1C [(13)]
ΔE (36 h) [1]: 3.1

CCc1ccc(NC(C)=O)c(CC)c1N=c1ccc2c(-c3ccccc3S(=O)(=O)O)c3ccc(Nc4c(CC)ccc(NC(C)=O)c4CC)cc3oc-2c1 [(14)]
ΔE (36 h) [1]: 5.2

CCc1ccc(NC(C)=O)c(CC)c1Nc1ccc2c(-c3ccccc3S(=O)(=O)O)c3ccc(=Nc4c(C)ccc(NC(C)=O)c4C)cc-3oc2c1 [(15)]
ΔE (36 h) [1]: 5.0

CC(=O)Nc1ccc(C)c(N=c2ccc3c(-c4ccccc4S(=O)(=O)O)c4ccc(Nc5c(C(C)C)ccc(NC(C)=O)c5C(C)C)cc4oc-3c2)c1C [(16)]
ΔE (36 h) [1]: 5.8

CCOc1cc(C)c(N=c2ccc3c(-c4ccccc4S(=O)(=O)O)c4ccc(Nc5c(C)cc(OCC)c(NC(C)=O)c5C)cc4oc-3c2)c(C)c1NC(C)=O [(18)]
ΔE (36 h) [1]: 3.9

C=C(C)C(=O)Nc1c(C)cc(C)c(N=c2ccc3c(-c4ccccc4S(=O)(=O)O)c4ccc(Nc5c(C)cc(C)c(NC(=O)C(=C)C)c5C)cc4oc-3c2)c1C [(21)]
ΔE (36 h) [1]: 7.8

Cc1cc(C)c(NC(=O)c2cccnc2)c(C)c1N=c1ccc2c(-c3ccccc3S(=O)(=O)O)c3ccc(Nc4c(C)cc(C)c(NC(=O)c5cccnc5)c4C)cc3oc-2c1 [(22)]
ΔE (36 h) [1]: 5.0

CCCCCCCCCCCCCCCCCC(=O)Nc1c(C)cc(C)c(N=c2ccc3c(-c4ccccc4S(=O)(=O)O)c4ccc(Nc5c(C)cc(C)c(NC(=O)CCCCCCCCCCCCCCCCC)c5C)cc4oc-3c2)c1C [(23)]
ΔE (36 h) [1]: 3.8

CC(=O)Nc1c(C)cc(C)c(N=c2ccc3c(-c4ccccc4S(=O)(=O)O)c4ccc(Nc5c(C)cc(C)c(NC(C)=O)c5C)cc4oc-3c2)c1C [Compound (5)]
solubility in water (Solubility in water): less than 1 % as mass percentage | ΔE (36 h) [1]: 3.2

CCC(=O)Nc1c(C)cc(C)c(N=c2ccc3c(-c4ccccc4S(=O)(=O)O)c4ccc(Nc5c(C)cc(C)c(NC(=O)CC)c5C)cc4oc-3c2)c1C [Compound (6)]
ΔE (36 h) [1]: 3.3

CCCC(=O)Nc1c(C)cc(C)c(N=c2ccc3c(-c4ccccc4S(=O)(=O)O)c4ccc(Nc5c(C)cc(C)c(NC(=O)CCC)c5C)cc4oc-3c2)c1C [Compound (7)]
ΔE (36 h) [1]: 3.2

Cc1cc(C)c(NC(=O)C(C)C)c(C)c1N=c1ccc2c(-c3ccccc3S(=O)(=O)O)c3ccc(Nc4c(C)cc(C)c(NC(=O)C(C)C)c4C)cc3oc-2c1 [Compound (8)]
ΔE (36 h) [1]: 2.9

Cc1cc(C)c(NC(=O)c2ccccc2)c(C)c1N=c1ccc2c(-c3ccccc3S(=O)(=O)O)c3ccc(Nc4c(C)cc(C)c(NC(=O)c5ccccc5)c4C)cc3oc-2c1 [Compound (10)]
ΔE (36 h) [1]: 3.8
